Earlier results, collected in patent US12128066B2, “Product for treating skin fungus and its micronized preparation method” (priority 2021, dated 2024).

Settings: in water or organic solvents

S=[Se]=S [Selenium disulfide]
Solubility: almost insoluble
